From US6737383B1, “Herbicidal oxadiazolidines” (priority 1999, dated 2004)

Columns and labels:
[1] = system: Italian ryegrass; assay: Test E Italian ryegrass; format: in vivo, Lolium multiflorum; settings: Preemergence
[2] = system: giant foxtail; assay: Test B pre/postemergence giant foxtail; format: in vivo, Setaria faberii
How it was run: (§1)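 Response is a visual 0-to-10 score relative to untreated plants, where 0 means no effect and 10 means complete control, taken twelve to sixteen days after application. Treatments went onto soil at planting and onto foliage of 1- to 4-leaf plants, using a surfactant-containing non-phytotoxic solvent.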

[3] = system: blackgrass; assay: Test E blackgrass; format: in vivo, Alopecurus myosuroides; settings: Preemergence
[4] = system: crabgrass; assay: Test B pre/postemergence crabgrass; format: in vivo, Digitaria sanguinalis
How it was run: as §1

[5] = system: wild oat; assay: Test E wild oat; format: in vivo, Avena fatua; settings: Preemergence
[6] = system: green foxtail; assay: Test E green foxtail; format: in vivo, Setaria viridis; settings: Preemergence
[7] = system: winter wheat; assay: Test E winter wheat; format: in vivo, Triticum aestivum; settings: Preemergence
[8] = system: winter barley; assay: Test E winter barley; format: in vivo, Hordeum vulgare; settings: Preemergence
[9] = system: soybean; assay: Test B pre/postemergence soybean; format: in vivo, Glycine max
How it was run: as §1

[10] = system: sugar beet; assay: Test B pre/postemergence sugar beet; format: in vivo, Beta vulgaris; settings: for Sugarbeets plant response rating (0 to 10 scale): 0 is no effect
How it was run: as §1

[11] = system: winter wheat; assay: Test E winter wheat; format: in vivo, Triticum aestivum; settings: Postemergence
How it was run: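 For postemergence, plants at the 1- to 4-leaf stage, in a 60:40 mix of sandy loam and potting mix, treated with compound formulated in a surfactant-containing non-phytotoxic solvent. Visual assessment versus untreated controls followed roughly 21–28 days in the greenhouse.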

[12] = Rate 62 g/ha, 0 to 100 scale, 0 no effect, 100 complete control
[13] = Rate 125 g/ha, 0 to 100 scale (0 no effect, 100 complete control)
[14] = Postemergence, Rate 125 g/ha, scale of 0 to 10 where 0 is no effect and 10 is complete control
[15] = Postemergence, Rate 250 g/ha, scale 0 to 10, 0 no effect, 10 complete control
[16] = Preemergence, Rate 62 g/ha, scale 0 to 10 (0 no effect, 10 complete control)
[17] = Preemergence, Rate 125 g/ha, scale 0 to 10 (0 no effect, 10 complete control)
[18] = Preemergence, Rate 250 g/ha, scale of 0 to 10 where 0 is no effect and 10 is complete control
[19] = Preemergence, Rate 500 g/ha, scale 0 to 10 (0 no effect, 10 complete control)
[20] = Rate 62 g/ha, Postemergence, scale of 0 to 10 where 0 is no effect and 10 is complete control
[21] = Rate 500 g/ha, Postemergence, scale 0 to 10, 0 no effect, 10 complete control
[22] = Rate 250 g/ha, Postemergence, scale 0 to 10, 0 is no effect, 10 is complete control
[23] = Preemergence, Rate 125 g/ha, 10 is complete control
[24] = Rate 500 g/ha, 0 to 100 scale where 0 is no effect and 100 is complete control
[25] = Preemergence, Rate 62 g/ha, scale of 0 to 10 where 0 is no effect and 10 is complete control
[26] = Preemergence, Rate 125 g/ha, 0 is no effect, 10 is complete control
[27] = Preemergence, Rate 250 g/ha, scale 0 to 10, 0 is no effect, 10 is complete control
[28] = Rate 500 g/ha, Postemergence, scale 0 to 10

## CC(C)N(C(=O)n1oc(=O)n(C(C)C)c1=O)c1ccccc1 [Compound 113]
[1]; [12]
  Plant response rating, I. Ryegrass: 50
[1]; [13]
  Plant response rating, I. Ryegrass: 50
[1]; Rate 250 g/ha, 0 to 100 scale
  Plant response rating, I. Ryegrass: 100
[2]; [14]
  Giant foxtail plant response rating: 9
[2]; [15]
  Giant foxtail plant response rating: 9
[2]; [16]
  Giant foxtail plant response rating: 9
[2]; [17]
  Plant response rating, Giant foxtail: 10
[2]; [18]
  Plant response rating, Giant foxtail: 10
[2]; [19]
  Giant foxtail plant response rating: 10
[2]; [20]
  Giant foxtail plant response rating: 9
[2]; [21]
  Giant foxtail plant response rating: 9
[3]; [12]
  Plant response rating, Blackgrass: 60
[3]; [13]
  Plant response rating, Blackgrass: 30
[3]; Rate 250 g/ha, 0 to 100 scale
  Plant response rating, Blackgrass: 85
[4]; [14]
  Crabgrass plant response rating: 9
[4]; [15]
  Crabgrass plant response rating: 9
[4]; [16]
  Crabgrass plant response rating: 7
[4]; [17]
  Plant response rating, Crabgrass: 10
[4]; [18]
  Plant response rating, Crabgrass: 10
[4]; [19]
  Crabgrass plant response rating: 10
[4]; [20]
  Crabgrass plant response rating: 9
[4]; [21]
  Crabgrass plant response rating: 9
[5]; [12]
  Plant response rating, Wild oat: 20
[5]; [13]
  Plant response rating, Wild oat: 30
[6]; [12]
  Plant response rating, Green foxtail: 55
[6]; [13]
  Plant response rating, Green foxtail: 70
[6]; Rate 250 g/ha, 0 to 100 scale
  Plant response rating, Green foxtail: 85
[7]; [12]
  Plant response rating, Wheat (winter): 40
[7]; [13]
  Plant response rating, Wheat (winter): 50
[7]; Rate 250 g/ha, 0 to 100 scale
  Plant response rating, Wheat (winter): 60
[8]; [12]
  Plant response rating, Barley (winter): 10
[8]; [13]
  Plant response rating, Barley (winter): 10
[8]; Rate 250 g/ha, 0 to 100 scale
  Plant response rating, Barley (winter): 85
[9]; [14]
  Soybean plant response rating: 6
[9]; [16]
  Soybean plant response rating: 3
[9]; [17]
  Plant response rating, Soybean: 8
[9]; [18]
  Plant response rating, Soybean: 9
[9]; [19]
  Soybean plant response rating: 9
[9]; [20]
  Soybean plant response rating: 6
[9]; [22]
  Plant response rating, Soybean: 7
[9]; [21]
  Soybean plant response rating: 7
[10]; [14]
  Sugarbeets plant response rating: 4
[10]; [16]
  Sugarbeets plant response rating: 7
[10]; [23]
  Sugarbeets plant response rating (0 to 10 scale): 8
[10]; [18]
  Plant response rating, Sugarbeets: 9
[10]; [19]
  Sugarbeets plant response rating: 10
[10]; [20]
  Sugarbeets plant response rating: 4
[10]; [22]
  Plant response rating, Sugarbeets: 5
[10]; [21]
  Sugarbeets plant response rating: 6
[11]; Rate 62 g/ha, 0 to 100 scale
  Plant response rating, Wheat (winter): 15
[11]; Rate 125 g/ha, 0 to 100 scale
  Plant response rating, Wheat (winter): 30
[11]; Rate 250 g/ha, 0 to 100 scale (0 no effect, 100 complete control)
  Plant response rating, Wheat (winter): 70

## Cc1nsc(C)c1-n1c(=O)on(C(=O)N(c2ccc(F)cc2F)C(C)C)c1=O [Compound 158]
[1]; [12]
  Plant response rating, I. Ryegrass: 10
[1]; [13]
  Plant response rating, I. Ryegrass: 20
[1]; Rate 250 g/ha
  I. Ryegrass plant response rating (0 to 100 scale): 50
[1]; [24]
  Plant response rating, I. Ryegrass: 50
[2]; [14]
  Giant foxtail plant response rating: 0
[2]; [25]
  Giant foxtail plant response rating: 3
[2]; [26]
  Giant foxtail plant response rating (0 to 10 scale): 4
[2]; [27]
  Giant foxtail plant response rating: 7
[2]; [19]
  Giant foxtail plant response rating: 8
[2]; [20]
  Giant foxtail plant response rating: 0
[2]; [22]
  Plant response rating, Giant foxtail: 4
[2]; [28]
  Giant foxtail plant response rating: 5
[3]; [12]
  Plant response rating, Blackgrass: 10
[3]; [13]
  Plant response rating, Blackgrass: 20
[3]; Rate 250 g/ha
  Blackgrass plant response rating (0 to 100 scale): 50
[3]; [24]
  Plant response rating, Blackgrass: 50
[4]; [14]
  Crabgrass plant response rating: 0
[4]; [25]
  Crabgrass plant response rating: 3
[4]; [26]
  Crabgrass plant response rating (0 to 10 scale): 3
[4]; [27]
  Crabgrass plant response rating: 4
[4]; [19]
  Crabgrass plant response rating: 7
[4]; [20]
  Crabgrass plant response rating: 0
[4]; [22]
  Plant response rating, Crabgrass: 3
[4]; [28]
  Crabgrass plant response rating: 4
[5]; [12]
  Plant response rating, Wild oat: 50
[5]; [13]
  Plant response rating, Wild oat: 50
[5]; Rate 250 g/ha
  Wild oat plant response rating (0 to 100 scale): 50
[5]; [24]
  Plant response rating, Wild oat: 60
[6]; [12]
  Plant response rating, Green foxtail: 0
[6]; [13]
  Plant response rating, Green foxtail: 10
[6]; Rate 250 g/ha
  Green foxtail plant response rating (0 to 100 scale): 20
[6]; [24]
  Plant response rating, Green foxtail: 50
[7]; [12]
  Plant response rating, Wheat (winter): 0
[7]; [13]
  Plant response rating, Wheat (winter): 10
[7]; Rate 250 g/ha
  Wheat (winter) plant response rating (0 to 100 scale): 30
[8]; [12]
  Plant response rating, Barley (winter): 10
[8]; [13]
  Plant response rating, Barley (winter): 20
[8]; Rate 250 g/ha
  Barley (winter) plant response rating (0 to 100 scale): 30
[8]; [24]
  Plant response rating, Barley (winter): 30
[9]; [14]
  Soybean plant response rating: 3
[9]; [25]
  Soybean plant response rating: 0
[9]; [26]
  Soybean plant response rating (0 to 10 scale): 0
[9]; [27]
  Soybean plant response rating: 0
[9]; [19]
  Soybean plant response rating: 0
[9]; [20]
  Soybean plant response rating: 3
[9]; [22]
  Plant response rating, Soybean: 4
[9]; [28]
  Soybean plant response rating: 5
[10]; [14]
  Sugarbeets plant response rating: 0
[10]; [25]
  Sugarbeets plant response rating: 0
[10]; [23]
  Sugarbeets plant response rating (0 to 10 scale): 0
[10]; [27]
  Sugarbeets plant response rating: 0
[10]; [19]
  Sugarbeets plant response rating: 0
[10]; [20]
  Sugarbeets plant response rating: 0
[10]; [22]
  Plant response rating, Sugarbeets: 0
[10]; [28]
  Sugarbeets plant response rating: 0
[11]; Rate 62 g/ha, 0 to 100 scale
  Plant response rating, Wheat (winter): 10
[11]; Rate 125 g/ha, 0 to 100 scale
  Plant response rating, Wheat (winter): 15
[11]; Rate 500 g/ha, 0 to 100 scale, 0 no effect, 100 complete control
  Plant response rating, Wheat (winter): 30
[11]; Rate 250 g/ha, 0 to 100 scale where 0 is no effect and 100 is complete control
  Wheat (winter) plant response rating: 40
